# Experimental data taken from article PMC11855866 (International Journal of Molecular Sciences, 2025).
# Where two headings read alike, the source gives them in different places.
# Columns and labels:
# HepG2 cells [1] = experiment: MTT cytotoxicity / synergy assay, 72 h, HepG2
# Protocol: (§1) The synergistic effects of drug combinations were studied in various cancer cell lines, including MCF-7 (human breast cancer), A549 (human lung cancer), U-87 MG (human malignant glioma), HepG2 (human liver cancer), and HUH7 (human liver cancer). HMEC-1, an immortalized human microvascular endothelial cell line, was used as a model for normal cells. All cell lines were purchased from ATCC (Rockville, MD, USA).
# (§2) The cancer cell lines were cultured in Dulbecco’s Modified Eagle’s Medium (DMEM; Sigma-Aldrich) supplemented with 10% FBS and 1% penicillin/streptomycin mixture (10,000 U/mL penicillin and 10 mg/mL streptomycin; Sigma-Aldrich) at 37 °C in a humidified atmosphere with 5% CO2.
# (§3) For the MTT assay, exponentially growing cells were seeded into 96-well plates at a density of 5 × 10³ cells per well. After 24 h of incubation, the medium was replaced with 100 µL of fresh medium containing the tested compounds. After 72 h of treatment, cell viability was assessed using the MTT assay as described earlier. […] IC50 values were calculated using GraphPad Prism 9 software (GraphPad Software).
# MCF-7 cells [2] = experiment: MTT cytotoxicity / synergy assay, 72 h, MCF-7; format: cell-based, human; settings: 72 h; for decrease in cell viability caused by 0.05% Tween-80: with vs. without 0.05% Tween-80; for IC50: MTT, n.d. = IC50 not achieved within concentrations tested, read-out: IC50 Value in Specific Cell Line, MCF-7
# Protocol: Stock solutions of the tested compounds were first prepared in DMSO at 200-fold the intended final concentration. […] The cells were treated for 72 h under the same conditions.
# Following treatment, 25 μL of MTT solution was added to each well, and the plates were incubated for 2 h at 37 °C. […] IC₅₀ values, indicating the concentration required to reduce cell viability by 50% compared to untreated controls (set as 100% viability), were calculated using GraphPad Prism 9 software (GraphPad Software, San Diego, CA, USA). All data from this preliminary cytotoxic assay were analyzed by ANOVA followed by Tukey’s post hoc test for multiple comparisons, with significance set at p < 0.05. A similar statistical approach was used for the rest of the experimental work presented in this study.
# HSA = test system: HSA; set-up: method as in Figure S2 [39–71]; settings: ref Figure S2 [39–71]; cited from earlier work
# HMEC-1 cells = experiment: MTT cytotoxicity / synergy assay, 72 h, HMEC-1; settings: read-out: IC50 Value in Specific Cell Line, HMEC-1; for CC50: Homo sapiens, HMEC-1, 72 h
# Protocol: as §1, §2, §3
# [3] = Hemolysis (Drabkin's method); format: cell-based; settings: human, washed erythrocyte (RBC) suspension, 40% hematocrit, pH 7.4, single drug, RT, dark, CTRL− 11.6%
# Protocol: Blood samples were collected from healthy human volunteers into Vacutainer tubes containing 3% sodium citrate (BD Biosciences, Warsaw, Poland). Whole blood was centrifuged at 1500 rpm (RCF = 214 g) for 10 min in a CompactStar CS4 centrifuge (VWR) at RT to separate erythrocytes, which were washed twice with PBS (pH 7.4) and centrifuged at 1500 rpm for 5 min at RT after each wash. Hematocrit was measured to adjust the final RBC concentration in PBS (pH 7.4) to 40%. The drugs were then dissolved in the RBC suspension at the final concentrations outlined in Figure 8. RBCs incubated in dH2O were used as a positive control (100% hemolysis), while RBCs in PBS were used as the negative control. A blank sample of PBS without RBCs or drugs provided a baseline for absorbance measurements. Experimental samples, along with positive, negative, and vehicle (0.5% DMSO) controls, were incubated for 4 h at RT in the dark. After incubation, the samples were centrifuged at 1500 rpm for 5 min at RT, and the supernatant was collected to measure hemoglobin release using Drabkin’s method. Absorbance was measured at 540 nm with a Jenway 6305 UV/Vis spectrophotometer (Bibby Scientific, Staffordshire, UK). This study was conducted in triplicate. The percentage of hemolysis was calculated by comparing the absorbance at 540 nm (OD540) of the test sample with that of the positive control using the following formula:(2) % Hemolysis=OD540Test−OD540(Blank)/OD540Total Lysis−OD540(Blank)×100%
# [4] = set-up: method as in Figure S2 [39–71]; settings: ref Figure S2 [39–71]; cited from earlier work
# [5] = test system: A549, HepG2, MCF-7, and U-87MG; experiment: Doxorubicin accumulation assay, sensitive cell lines; format: cell-based, human
# Protocol: Cells were seeded at a density of 2 × 10^4 cells per well in black 96-well plates as described in Section 3.6.
# [6] = DLS particle size measurements; format: physicochemical; settings: 100–500 µM CHLO, […] BSA, 0.05% Tween-80
# Protocol: Dynamic light scattering (DLS) measurements were performed using a Zetasizer Nano ZS instrument (Malvern Instruments, Malvern, UK). Samples of 2 mL were placed in disposable PMMA cuvettes (cat. #634-0677; VWR, Gdańsk, Poland) and measured at 37 °C. To ensure accuracy, each sample was measured at least three times. The data were processed using DTS v6.2 software (Malvern Instruments).
# HuH7 cells = experiment: MTT cytotoxicity / synergy assay, 72 h, HuH7; settings: Homo sapiens; for IC50: Huh-7, 72 h, read-out: IC50 Value in Specific Cell Line, HuH7
# Protocol: as §1, §2, §3
# U-87MG cells = experiment: MTT cytotoxicity / synergy assay, 72 h, U-87MG; format: cell-based; settings: Homo sapiens, n.d. = IC50 not achieved within concentrations tested, read-out: IC50 Value in Specific Cell Line, U-87MG
# Protocol: as §1, §2, §3
# A549 cells [7] = experiment: MTT cytotoxicity / synergy assay, 72 h, A549; settings: Homo sapiens, A549, 72 h, read-out: IC50 Value in Specific Cell Line, A549
# Protocol: as §1, §2, §3
# HepG2 cells [8] = settings: human
# Protocol: as §1, §2, §3
# A549 cells [9] = settings: human
# Protocol: as §1, §2, §3
# BSA = molecular target: BSA; set-up: method as in PMID 29772022; settings: read-out: Kd (binding to BSA); cited from earlier work
# mammary tumors [10] = settings: 20 days; GLIB 0.06 mg/kg/day orally, tamoxifen 1 mg/kg/day s.c.; cited from earlier work
# MRP1 = settings: cited from earlier work
# MCF-7 cells [11] = settings: read-out: IC50 value, MCF-7; cited from earlier work
# mammary tumors [12] = settings: 20 days; GLIB 0.06 mg/kg/day orally, tamoxifen 1 mg/kg/day s.c.; cited from earlier work; remark: listed apart in the source
# [13] = Analysis of drug stability in PBS; format: physicochemical; settings: equimolar mixtures with DOXO, PBS (pH 7.4), 37 °C, 7 to 14 days
# Protocol: The samples were prepared in PBS (pH 7.4) containing 0.05% (v/v) Tween-80 and 0.5% (v/v) DMSO. […] The samples were placed into 2 mL HPLC vials, sealed, and incubated at 37 °C for 7 to 14 days. Every 24 h, 20 µL aliquots were taken for HPLC analysis.
# [14] = test system: 4T1 breast cancer and B16F10 melanoma xenografts; settings: 4T1, B16F10 xenografts, MMTV-PyMT; cited from earlier work
# [15] = Homo sapiens, HepG2, 72 h, read-out: IC50 Value in Specific Cell Line, HepG2
compound,measurement,setting,value
"CCCCNC(=O)NS(=O)(=O)c1ccc(N)cc1 [CARB, Carbutamide]",IC50,HepG2 cells [1]; [15],70.7 ± 1.4 µM
"CCCNC(=O)NS(=O)(=O)c1ccc(Cl)cc1 [CHLO, Chlorpropamide]",decrease in cell viability caused by 0.05% Tween-80,MCF-7 cells [2],3.2%
same,IC50,"MCF-7 cells [2]; Homo sapiens, MCF7, 72 h",> 500 µM
same,"nKa (global affinity constant, HSA)",HSA,62000 M⁻¹
same,CC50,HMEC-1 cells,218.2 ± 1.6 µM
same,hemolysis at 4 h,[3],11.2 to 11.9%
same,IC50,"HepG2 cells [1]; Homo sapiens, HepG2, 72 h, read-out: IC50 Value in Specific Cell Line, HepG2, MTT, 72 h, n.d. = IC50 not achieved within concentrations tested",480 ± 54.1 µM
same,solubility,[4],1000 µM
same,increase of DOXO levels,[5],up to 2.3 times
same,aggregate formation,[6],do not form aggregates
"COc1cccc2c1C(=O)c1c(O)c3c(c(O)c1C2=O)C[C@@](O)(C(=O)CO)C[C@@H]3O[C@H]1C[C@H](N)[C@H](O)[C@H](C)O1 [DOXO, Doxorubicin]",decrease in cell viability caused by 0.05% Tween-80,MCF-7 cells [2],12.6%
same,IC50,"MCF-7 cells [2]; Homo sapiens, MCF7",0.46 ± 0.06 µM
same,IC50,HuH7 cells,0.28 ± 0.02 µM
same,viability at 0.65 µM,"HuH7 cells; Huh-7, read-out: HuH7 cell viability",53.5 ± 0.4%
same,IC50,U-87MG cells,0.57 ± 0.11 µM
same,IC50,A549 cells [7],0.27 ± 0.02 µM
same,CC50,HMEC-1 cells,0.08 ± 0.01 µM
same,hemolysis at 4 h,[3],32.3%
same,IC50,HepG2 cells [1]; [15],0.3 ± 0.01 µM
same,HepG2 cell viability,HepG2 cells [8],0.695 ± 0.003
same,A549 cell viability,A549 cells [9],0.643 ± 0.002
"COc1ccc(Cl)cc1C(=O)NCCc1ccc(S(=O)(=O)NC(=O)NC2CCCCC2)cc1 [GLIB, Glibenclamide]",Kd,BSA,0.67 µM
same,IC50,HuH7 cells,493.2 ± 1.3 µM
same,CC50,HMEC-1 cells,248 ± 3.6 µM
same,tumors responded,mammary tumors [10],no response
same,concentration increasing intracellular accumulation of calcein,MRP1,≥ 3.12 µM
same,IC50,MCF-7 cells [11],325 µM
same,tumors responded (regressed or remained stable),mammary tumors [12],64%
"Cc1ccc(S(=O)(=O)NC(=O)NN2CC3CCCC3C2)cc1 (stereo not shown) [GLIC, Gliclazide]",IC50,"MCF-7 cells [2]; Homo sapiens, MCF7, 72 h",87.9 µM
same,Kd,BSA,155 µM
same,CC50,HMEC-1 cells,447.7 ± 2.3 µM
same,stability,[13],slow but noticeable degradation
same,IC50,MCF-7 cells [11],216 µM
"Cc1cnc(C(=O)NCCc2ccc(S(=O)(=O)NC(=O)NC3CCCCC3)cc2)cn1 [GLIP, Glipizide]",IC50,"MCF-7 cells [2]; Homo sapiens, MCF7",339 ± 18.8 µM
same,effect on tumor growth and metastasis,[14],inhibited tumor growth and metastasis
same,IC50,HuH7 cells,421.9 ± 0.5 µM
same,CC50,HMEC-1 cells,454.1 ± 1.8 µM
same,IC50,HepG2 cells [1]; [15],229 ± 10.9 µM
"COc1ccc2c(c1)C(=O)N(CCc1ccc(S(=O)(=O)NC(=O)NC3CCCCC3)cc1)C(=O)C2(C)C [GLIQ, Gliquidone]",IC50,"MCF-7 cells [2]; Homo sapiens, MCF7",68.8 ± 2.5 µM
same,IC50,HuH7 cells,400.7 ± 2.2 µM
same,IC50,U-87MG cells,57.1 ± 1.8 µM
same,IC50,A549 cells [7],259 ± 16.3 µM
same,CC50,HMEC-1 cells,157 ± 2.2 µM
same,hemolysis at 4 h,[3],11.2 to 11.9%
same,IC50,HepG2 cells [1]; [15],39.6 ± 2.6 µM
same,increase of DOXO levels,[5],up to 2.3 times
"COCCCNC(=O)NS(=O)(=O)c1ccc(C)cc1 [MESU, N-(3-methoxy-propyl)-N’-(toluene-4-sulfoyl)-urea]",IC50,MCF-7 cells [2],495.9 ± 0.8 µM
same,IC50,"HMEC-1 cells; MTT, 72 h, n.d. = IC50 not achieved within concentrations tested",78.3 ± 2.4 µM
same,IC50,"HepG2 cells [1]; read-out: IC50 Value in Specific Cell Line, HepG2, MTT, 72 h, n.d. = IC50 not achieved within concentrations tested",63.1 ± 0.3 µM
"Cc1ccc(S(=O)(=O)NC(=O)NN2CCCCCC2)cc1 [TOLA, Tolazamide]",CC50,HMEC-1 cells,468.6 ± 0.5 µM
same,IC50,HepG2 cells [1]; [15],470 ± 12.4 µM
same,stability,[13],slow but noticeable degradation
"CCCCNC(=O)NS(=O)(=O)c1ccc(C)cc1 [TOLB, Tolbutamide]",IC50,"MCF-7 cells [2]; Homo sapiens, MCF7",461 ± 53.9 µM
same,CC50,HMEC-1 cells,88.2 ± 4.1 µM
same,IC50,HepG2 cells [1]; [15],232 ± 21.6 µM
CC/C(=C(\c1ccccc1)c1ccc(OCCN(C)C)cc1)c1ccccc1 [tamoxifen],tumors responded,mammary tumors [10],75%
same,tumors responded (regressed or remained stable),mammary tumors [12],57%
Tween-80,concentration above which survival of MCF-7 cells is significantly reduced,MCF-7 cells [2],above 0.05 % (v/v)
